Patent US20050137251A1, “Dexanabinol and dexanabinol analogs regulate inflammation related genes” (priority 2002, published 2005)

Experiments:
IL-2 gene expression = IL-2 gene expression in MCAo mice brains; conditions: 5 mg/kg i.v., 18 hrs following MCAo
COX-2 gene expression [1] = assay: COX-2 gene expression in activated Jurkat T cells; assay type: cell-based, human; conditions: 10 μM, normalized to GAPDH
Procedure: II reverse transcriptase (Life Technologies).
The human acute lymphoma T cell line Jurkat (ATCC # TIB 152) was used to test the possible immunosuppressive effect of dexanabinol and its analogs on T cell activation. The Jurkat cells were grown in RPMI 1640 medium with 2 mM L-glutamine adjusted to contain 1.5 g/L sodium bicarbonate, 4.5 g/L glucose, 10 mM HEPES, 1.0 mM sodium pyruvate, and 10% heat inactivated fetal bovine serum. Cells were grown in tissue culture flasks and seeded at appropriate density into 24 wells tissue culture plates. 2×10^6 cells in one milliliter were stimulated using 10 ng/ml of PMA (Sigma) and 1 μM A23187 calcium ionophore (Sigma). […] The controls and test compounds were added at indicated concentrations one hour before stimulation.
In addition, we used this experimental system to test the impact of dexanabinol and its analogs on COX-2 gene expression. Following activation of Jurkat cells with PMA and calcium ionophore we obtained elevated COX-2 gene expression levels. The impact of the test compounds on COX-2 was assessed as previously described for IL-2. FIG. 2 depicts the results of this experiment as fold activation of COX-2 over non-activated T cells. The results are plotted after normalization to GAPDH expression. […]

COX-2 gene expression [2] = assay: COX-2 gene expression in LPS i.c.v. injected mice brains; assay type: in vivo; conditions: 20 mg/kg i.p., whole brain 6 hours after 100 ng LPS i.c.v.
MCP-1 gene expression = MCP-1 gene expression in MCAo mice brains; conditions: 5 mg/kg i.v., 18 hours of MCAo
[3] = system: activated microglia cells; assay: Activated microglia (F4/80 immunohistochemistry) in hippocampus of LPS injected mice brains; assay type: in vivo; conditions: 20 mg/kg, 72 hours after LPS
Procedure: The local i.c.v. injection of LPS in mice brain stimulates a wide range of inflammatory responses and cascades where various cytokines and chemokines are implicated. Following the results obtained in examples 3 and 4, we decided to assess the effect of additional active compounds of the invention on other genes involved in the inflammatory response. Specifically, we tested the impact of dexanabinol and PRS-211,092, both at 20 mg/kg, on the expression of pro-inflammatory IL-1β cytokine. The protocol was basically as previously described with minor modifications. The amount of LPS injected in the mice brain was raised to 250 ng and the animals were sacrificed 24 hours after LPS and treatment injection for mRNA analysis, carried out as previously described. Moreover, some animals were kept alive and sacrificed 72 hours after LPS and treatment injection for immunohistochemical analysis. For this purpose, after euthanizing the animals by injecting i.p. 100 mg/kg of sodium pentobarbitone, brains were removed and fixed in 4% formaldehyde for at least 72 hours. Brains were then washed with PBS and transferred for cryoprotection in a solution of 30% sucrose in PBS, until they sank. […] Quantitative analysis was carried out by counting the number of immunoreactive cells/mm^2 at the level of the hippocampus.

IL-1β gene expression = IL-1β gene expression in MCAo mice brains; conditions: 5 mg/kg i.v., 18 hrs following MCAo
[4] = system: carrageenan induced paw edema; assay: Carrageenan induced paw edema; assay type: in vivo, mice; conditions: doses ranging from 0.2 to 0.5 mg/kg i.p., 3 hours after carrageenan
[5] = system: LoVo colorectal cancer cells; assay: Tumor growth of in vivo implanted LoVo colorectal cancer cells; parameters: species or system mice; conditions: end of 8 weeks treatment
Procedure: Once we have shown that dexanabinol and its analogs were inhibitors of tumor cell proliferation in vitro, we wished to test if our compounds were as efficient in vivo. For this purpose the tumor cells LoVo (originating from a colorectal tumor; ATCC # CCL-229) were grown in DMEM containing 4.5 g/L glucose, 2 mM Glutamine, 1% Pen/Strep and 10% heat inactivated fetal calf serum. The cells were harvested using Trypsin-EDTA, the detached cells were rinsed in PBS, and counted. Predetermined amounts (1×10^6 cells in constant volume of […]) were injected s.c. above the right femoral joint in nude CD-1 male mice (average weight 20-25 gr, Harlan, Israel). Each treatment group was composed of at least 7 animals. Each animal was clinically monitored daily. The growth of the tumor was also monitored during the daily visits but actual measurements were recorded once a week. When tumors reach the appropriate size, animals are treated with either vehicle, 5 ml/kg/day, or with our test compounds, in the range of 2.5 to 10 mg/kg/day.
Thirty-six out of the 40 implanted mice developed a visible tumor within 5 to 6 weeks from tumor implantation. All animals were treated first on the 36th-42nd day of tumor implantation and the treatment lasted 8 weeks. One animal died in each treatment group between the 5th and the 7th week of treatment. The results are expressed as percent of tumor growth at the various days of the treatment as compared to baseline day 1. The results are depicted in FIG. 7 where we can observe that the efficacy of dexanabinol is inversely proportional to its dose in the range tested. 2.5 mg/kg (▪) seems more efficient than 5 mg/kg (▴), itself better than 10 mg/kg (x), which has very little effect, if at all, as compared to vehicle (--♦--). By the end of the treatment, 2.5 mg/kg dexanabinol reduced the tumor growth by 89%, 5 mg/kg by 61% and 10 mg/kg by 21%.

For `CCCCCCC(C)(C)c1cc(O)c2c(c1)OC(C)(C)[C@H]1CC=C(CO)C[C@H]21` [dexanabinol, 1,1-dimethylheptyl-(3S,4S)-7-hydroxy-Δ^6-tetrahydrocannabinol], which “Reduction of IL-2 gene activation vs vehicle” value (IL-2 gene expression) is on record?
Its value is 177%.

What about the “Inhibition of COX-2 gene expression” value (COX-2 gene expression [1]) of the same compound?
The value was 88%.

What about the “Reduction in the level of COX-2 activation” value (COX-2 gene expression [2]) of the same compound?
The value was 53%.

And the “Reduction of MCP-1 gene expression increase vs vehicle” value (MCP-1 gene expression)?
Its value is 41%.

And the “Reduction of the amount of activated microglia vs vehicle” value [3]?
The value was 40%.

What about the “Modulation of IL-1β gene expression” value (IL-1β gene expression) of the same compound?
Its value is “not modulated”.

And the “Reduction in paw thickness” value [4]?
The value was “about 29%”.

And the “Reduction of tumor growth” value ([5]; 2.5 mg/kg/day)?
The value was 89%.

And the “Reduction of tumor growth” value ([5]; 5 mg/kg/day)?
Its value is 61%.

What about the “Reduction of tumor growth” value ([5]; 10 mg/kg/day) of the same compound?
The value was 21%.
